Reference: a melting point compilation (Tetko et al.)

| Compound | melting point [°C] |
| --- | --- |
| Nc1nc(=O)c2[nH]c(=S)[nH]c2[nH]1 | 300 |
| Nc1ccc([N+](=O)[O-])cc1Cl | 108 |
| CCCCCCCCCCOc1ccc(C=O)cc1OCCCCCCCCCC | 61 to 66 |
| CC(=O)NC(CC(=O)O)C(=O)O (stereo not drawn) | 138 |
| O=[N+]([O-])c1cccc(-c2nnc3n2CN(c2ccccc2[N+](=O)[O-])CS3)c1 | 183 |
| Oc1ccc2c(c1)C13CCCCC1(O)C(C2)N(CC1CCC1)CC3 (stereo not drawn) | 216 |
| O=[N+]([O-])c1sc2ccccc2c1Br | 165 to 167 |
| C[Si]1(C)O[Si](C)(C)O[Si](C)(C)O[Si](C)(C)O[Si](C)(C)O1 | -38 |
| Cc1cc(-c2cc(C)c(O)c(C)c2)cc(C)c1O | 222 |
| O=C1C=CC(=O)c2ccccc21 | 128 |
| O=C(O)CCS | 18 |
| CC(NC(=O)OCc1ccccc1)C(=O)O (racemic) | 112 to 113 |
| Clc1cc2c(cc1Cl)Oc1cc(Cl)c(Cl)cc1O2 | 305 |
| N#CCc1ccc(Cl)c(Cl)c1 | 40 |
| CCOCC1C(=O)C2(C)CCC1C2(C)C (stereo not drawn) | 114 |
| CC(C)(C)OC(=O)N1CCC(C(N)=S)CC1 | 130 to 131 |
| COC1CC2C3(C)CCCC2(COC3O)C2C(OC(C)=O)CC3C(C)C(=O)C12C3O (stereo not drawn) | 200 |
| CCc1oc2ccccc2c1C(=O)c1cc(Br)c(O)c(Br)c1 | 151 |
| Cc1cc([N+](=O)[O-])c(N)c([N+](=O)[O-])c1 | 172 |
| CC(C)(O)CCc1ccccc1 | 24.5 |
| CC(=O)NC(Cc1ccccc1F)C(=O)O (racemic) | 153 to 155 |
| Cc1oc(S(=O)(=O)N2CCCC2)cc1C(=O)O | 185 |
| Nc1cc(C(=O)O)cc(C(=O)O)c1 | 360 |
| O=C1OC(c2ccccc2)=NC1=Cc1cc([N+](=O)[O-])ccc1O | 231 to 232 |
| c1nnn[nH]1 | 157 |
| Clc1cccc2cccc(Cl)c12 | 89 |

| Compound | melting point [°C] |
| --- | --- |
| CCCCCCCCN(C)CCCCCCCC | -30.1 |
| Cc1cnc(Br)c(N)c1 | 105 |
| CC(C(=O)O)C1CCC2C3CCC4CC(=O)CCC4(C)C3CCC12C (stereo not drawn) | 253 |
| O=C1c2c(O)cccc2C(C2OC(CO)C(O)C(O)C2O)c2cc(CO)cc(O)c21 (stereo not drawn) | 148 |
| OC1C=C2CCN3Cc4cc5c(cc4C(C1O)C23)OCO5 (stereo not drawn) | 280 |
| Nc1ccc2oc3c(c2c1)CCCC3 | 73 to 75 |
| COc1ccc(NC(=S)NN=Cc2c(-c3ccc(Cl)cc3)[nH]c3ccccc23)cc1 | 230 to 232 |
| Cc1cc(C(F)(F)F)c(C#N)c(=S)[nH]1 | 200 |
| O=C(OCC(=O)N1CCCCC1)c1ccccc1 | 88 |
| COc1cc2c(cc1OC)C(=O)NCC2 | 175 |
| O=S(=O)(Cl)c1cnc(Cl)c(Br)c1 | 68 |
| NNC(=O)c1ccccc1F | 73 |
| C/C(=N\c1ccc(C(=O)O)c(O)c1)c1c(O)c2ccccc2n(-c2ccccc2)c1=O | 177 |
| O=c1c(Cl)c(Cl)cnn1-c1ccc(F)c(Cl)c1 | 201 to 203 |
| Cc1cc(Br)ccc1C(=O)O | 183 |
| CC(C)(C)C(O)C(Cc1ccc(Cl)cc1)n1cncn1 (stereo not drawn) | 166 |
| Cc1c(C(=O)CCl)sc2ccc(Cl)cc12 | 158 to 160 |
| Cc1ccc(NC(N)=O)cc1 | 178 to 181 |
| N=C1NCCS1 | 85.3 |
| CCCCCCCCCCCCl | -17 |
| N#CC1(N=NC2(C#N)CCCCC2)CCCCC1 | 116 |
| Cc1ccnc2c1NC(=O)c1cccnc1N2C1CC1 | 265 |
| Cc1nc(-c2ccc(C(=O)Cl)cc2)cs1 | 120 to 122 |
| COc1ccccc1N1CCN(C(=O)c2ccc(N)cc2)CC1 | 212 to 214 |
| CCCCCCC(=O)OCCCC | -67.5 |
| NS(=O)(=O)c1ccc(SCCCCO)c(F)c1 | 104 |

| Compound | melting point [°C] |
| --- | --- |
| CCNc1nsc2ccccc12 | 78 |
| O=C(O)c1ccc(Oc2ccccc2)cc1 | 162 |
| N#Cc1ccc(-c2ccsc2)cc1 | 109 to 111 |
| CC(=O)Nc1ccccc1F | 78 |
| CC1=C(C=NNC(N)=O)C(=O)C(C(C)C)C=C1 (stereo not drawn) | 221 to 222 |
| CCCCN(CCCC)CCCN | -50 |
| CCC1CCC(C)CC1 (stereo not drawn) | -80.8 |
| NNc1ncccc1[N+](=O)[O-] | 165 |
| COC(=O)C1(C(=O)OC)C=C(OC)c2ccccc21 | 114 to 115 |
| CC(C)OC(=O)Nc1cccc(Cl)c1 | 42 |
| O=C(NC1C2C=CC(C2)C1C(=O)O)OCc1ccccc1 (stereo not drawn) | 119 to 123 |
| O=C(Nc1ccc(Br)cc1)c1cc(Br)ccc1O | 242 |
| Nc1ccc(S(=O)(=O)c2ccc(NCCO)cc2)cc1 | 131 |
| CC(CCC(=O)O)C1CCC2C3CCC4CC(O)CCC4(C)C3CCC12C (stereo not drawn) | 186 |
| O=C(Oc1c(F)c(F)c(F)c(F)c1F)c1sccc1C1OCCO1 | 55.5 to 59.5 |
| Clc1nccc2ccccc12 | 34 |
| N#CCS(=O)(=O)c1ccc(F)cc1 | 87 to 89 |
| O=C(O)c1cnc(NCc2ccccc2)s1 | 163 to 164 |
| O=C(O)C1CC=CCC1 (stereo not drawn) | 17 |
| O=C(c1ccccc1)C1CC1 | 7 to 9 |
| O=C(O)C=Cc1cccnc1 | 233 to 237 |
| S=C(c1ccc2c(c1)OCO2)N1CCCCC1 | 113 |
| Cc1cc(Cc2cc(C)cc(C(C)(C)C)c2O)c(O)c(C(C)(C)C)c1 | 123 |
| COc1cc(C)oc(=O)c1 | 86 |
| C[Si](C)(C1C=Cc2ccccc21)C1C=Cc2ccccc21 (stereo not drawn) | 85 to 87 |
| CC(=O)OC1C2=C(C(=O)C(O)=C(C(C)C)C2=O)C2(C)CCCC(C)(C)C2C1O (stereo not drawn) | 216 |

| Compound | melting point [°C] |
| --- | --- |
| COC(=O)COC(=O)c1ccc2c(O)c(C(=O)OC)oc2c1 | 130 |
| O=C(O)c1cc(O)ccc1O | 204 to 207 |
| CCOC(=O)c1c(C)[nH]c(=O)[nH]c1=S | 150 |
| Cc1n[nH]c(C)c1-c1ccccc1 | 133 to 134 |
| O=C(O)c1ccc(O)nn1 | 246 to 247 |
| NC(=S)Nc1ccc(Oc2ccccc2)cc1 | 175 to 177 |
| CCCc1c(O)c(C(C)=O)cc(C(C)=O)c1O | 99 to 100 |
| CCOC(=O)c1c(C)[nH]c2ccc(O)cc12 | 206 to 210 |
| CON=C(C(=O)O)c1csc(N)n1 | 176 to 182 |
| O=[N+]([O-])c1cc([N+](=O)[O-])c(/C=C/c2cccc3c2OCO3)cc1/C=C/c1cccc2c1OCO2 | 215 |
| CN1CCNC(=O)CCSCCC1=O | 185 to 187 |
| OCC(O)CC(F)(F)C(F)(F)C(F)(F)C(F)(F)C(F)(F)C(F)(F)C(F)(F)C(F)(F)F (stereo not drawn) | 114 to 116 |
| O=C1OC(=O)c2c(F)c(F)c(F)c(F)c21 | 95 |
| NS(=O)(=O)c1ccc(S(=O)(=O)CCCCO)c(F)c1 | 134 |
| CCOC(=O)c1sc2nccnc2c1N | 120 |
| Cn1nc(-c2ccc(C=O)s2)cc1C(F)(F)F | 80 to 81 |
| CCCN(CC)CC1COC2(CCC(C(C)(C)C)CC2)O1 (stereo not drawn) | < 25 |
| Cc1ccc(C)nc1 | -16 |
| O=C(O)c1ccc(Cn2cccn2)cc1 | 192 to 193 |
| CCOP(=S)(OCC)SCSP(=S)(OCC)OCC | -12 |
| CC12CCC(=O)C=C1C=CC1C2CCC2(C)C1CCC21CCC(=O)O1 (stereo not drawn) | 150 |
| CCOP(=S)(OCC)SCCSCC | -25 |
| NC(=O)OCC(O)COc1ccc(Cl)cc1 (stereo not drawn) | 90 |
| CCC1(N2CCCCC2)C(=O)NC(=O)NC1=O | 215 |
| CNC(=O)Oc1ccc2c(c1)C1(C)CCOC1N2C (stereo not drawn) | 124 |
| CCC(C(=O)O)c1ccc(N2Cc3ccccc3C2=O)cc1 (stereo not drawn) | 183 |

| Compound | melting point [°C] |
| --- | --- |
| O=C1CCCCC1C1CCCCC1 (stereo not drawn) | -32 |
| O=CC(C=O)c1nc2ccccc2o1 | 222 to 230 |
| CCOC(=O)C1=C(NC(=O)CCl)Oc2c(c(=O)oc3ccccc23)C1c1ccc(Br)cc1 (stereo not drawn) | 158 |
| CC(C)(C)OC(=O)C(C)(C)Sc1ccc(Cl)cc1 | 44 to 46 |
| COc1ccccc1C=N/N=c1/sc(C(C)=O)nn1-c1ccccc1[N+](=O)[O-] | 178 |
| O=C(Nc1ccccc1)C(=O)Nc1ccccc1 | 254 |
| C#CCl | -126 |
| O=C1c2ccccc2C(=O)N1CCS(=O)(=O)Cl | 158 |
| Cc1cccnc1C(N)=S | 120 |
| COC(=O)[C@@H]1C[C@@H]2CCCN2[C@@]12C(=O)c1cccc3cccc2c13 | 145 |
| O=C1CC(c2ccccc2)=NO1 | 150 to 154 |
| O=C(N[C@@H](CSC(c1ccccc1)(c1ccccc1)c1ccccc1)C(=O)O)OCC1c2ccccc2-c2ccccc21 | 172 to 177 |
| CC(=O)NC(=O)COC(=O)c1ccccc1 | 104 |
| O=[N+]([O-])c1ccc2c(c1)oc1ccccc12 | 182 |
| NC(=O)c1c(F)ccc(F)c1F | 117 |
| CCCCCCCCCCF | -35 |
| NNC(=O)CNc1nc(N)n[nH]1 | 225 |
| c1ccc2nc(-c3cc(-c4cnc5ccccc5n4)cc(-c4cnc5ccccc5n4)c3)cnc2c1 | 302 |
| COC1OC(=O)c2ccccc21 (stereo not drawn) | 43.7 to 44.4 |
| Cc1nn(C)c2sc(C(=O)O)cc12 | 260 |
| CC(=O)OC1CCC2(C)C3CCC4(C)C(C(C)CCCC(C)C)CCC4C3CC(OC(C)=O)C2(O)C1 (stereo not drawn) | 164 |
| O=C1OC(=O)c2c1cccc2[N+](=O)[O-] | 160 to 165 |
| Cc1ccc(-c2nc3ccc(C)cn3c2CC(=O)N(C)C)cc1 | 196 |
| NS(=O)(=O)c1cc2c(cc1Cl)CN(C1CCCCC1)C2=O | 267 |
